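Exposure lasted 48 hours, with cells grown in 96-well plates and compounds tested at five concentrations. Here, GI50 denotes the concentration required for 50% inhibition of growth. TGI marks complete inhibition of growth.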
How the values were obtained:
Experiment in all cases: DTP human tumour cell line panel, 48 h
786-0 renal = tested on: 786-0 renal
ACHN renal = tested on: ACHN renal
CCRF-CEM leukemia = tested on: CCRF-CEM leukemia
DU-145 prostate = tested on: DU-145 prostate
IGROV1 ovarian = tested on: IGROV1 ovarian
SF-539 CNS = tested on: SF-539 CNS
SK-MEL-28 melanoma = tested on: SK-MEL-28 melanoma
SN12C renal = tested on: SN12C renal
UO-31 renal = tested on: UO-31 renal
HOP-62 NSCLC = tested on: HOP-62 NSCLC

Row | Compound | TGI (786-0 renal) [µM] | TGI (ACHN renal) [µM] | TGI (CCRF-CEM leukemia) [µM] | TGI (DU-145 prostate) [µM] | TGI (IGROV1 ovarian) [µM] | TGI (SF-539 CNS) [µM] | TGI (SK-MEL-28 melanoma) [µM] | TGI (SN12C renal) [µM] | TGI (UO-31 renal) [µM] | TGI (HOP-62 NSCLC) [µM] | GI50 (ACHN renal) [µM] | GI50 (CCRF-CEM leukemia) [µM] | GI50 (DU-145 prostate) [µM] | GI50 (HOP-62 NSCLC) [µM] | GI50 (IGROV1 ovarian) [µM] | GI50 (SF-539 CNS) [µM] | GI50 (SK-MEL-28 melanoma) [µM] | GI50 (SN12C renal) [µM] | GI50 (UO-31 renal) [µM]
1 | CC1=NN(c2cc(Cl)c(S(=O)(=O)O)cc2Cl)C2(C1)C(Cl)C(=O)N2c1nc2ccccc2s1 (stereo unspecified) | > 100 | > 100 | > 100 | > 100 | > 100 | > 100 | > 100 | > 100 | 76.5 | – | – | – | – | – | – | – | – | – | –
2 | O=C(O)C1C2OC(C(Br)C2Br)C1C(=O)O (stereo unspecified) | > 100 | > 100 | – | > 100 | > 100 | > 100 | > 100 | > 100 | > 100 | > 100 | – | – | – | – | – | – | – | – | –
3 | CCOC(=O)/C=C(/OCC)[C@@H]1C(C(=O)c2ccc(Cl)cc2)[C@@H]1/C(=C\C(=O)OCC)OCC (stereo partly specified) | > 100 | > 69.1 | > 100 | > 100 | > 100 | > 100 | > 100 | > 100 | > 91 | > 100 | – | – | – | – | – | – | – | – | –
4 | CC[P+](c1ccccc1)(N(C)C)N(C)C | > 100 | > 100 | > 100 | > 100 | > 100 | > 100 | > 100 | > 100 | > 100 | > 100 | – | – | – | – | – | – | – | – | –
5 | CCOC(=O)/C(=C/c1cn(C(C)=O)c2ccccc12)P(=O)(OC)OC | – | > 100 | 68.1 | > 100 | > 100 | – | > 100 | > 100 | – | > 100 | – | – | – | – | – | – | – | – | –
6 | C[C@]12CC[C@H]3[C@@H](CCC4=C/C(=N/OCCN5CCCCC5)CC[C@@]43C)[C@@H]1CC[C@@H]2O | > 100 | 51.6 | 26.9 | 63.5 | > 100 | – | 28 | 38.2 | 24.7 | 29.1 | – | – | – | – | – | – | – | – | –
7 | CCOC(=O)NCC(=O)NCC(=O)NCC(N)=O | > 100 | > 100 | > 100 | > 100 | > 100 | – | > 100 | – | > 100 | > 100 | – | – | – | – | – | – | – | – | –
8 | COC(=O)c1c2c(cc3c1CC1(Cc4cc5c(cc4C1)CCCC5)C3)CCCC2 | > 100 | > 100 | > 100 | – | > 100 | > 100 | – | > 100 | > 100 | > 100 | – | – | – | – | – | – | – | – | –
9 | Cc1cc(C)n(C(=CC(=O)C(Cl)Cl)n2nc(C)cc2C)n1 | 10 | 22.3 | 4.46 | 23 | 30.4 | 14.1 | – | – | 27.6 | 17.5 | – | – | – | – | – | – | – | – | –
10 | Clc1ccc(-c2nn3c(COc4ccc(OCc5nnc6sc(-c7ccc(Cl)cc7)nn56)c(Cl)c4)nnc3s2)cc1 | 26.6 | > 100 | – | > 100 | 43.9 | > 100 | > 100 | > 100 | 42.1 | 77.7 | – | – | – | – | – | – | – | – | –
11 | CN(C)CCCNC(=O)N/N=C/c1ccccn1 | – | > 10 | > 10 | > 10 | > 10 | > 10 | > 10 | > 10 | > 10 | > 10 | – | – | – | – | – | – | – | – | –
12 | O=C(c1ccccc1)C1C(c2ccccc2[N+](=O)[O-])N1C1CCCCC1 (stereo unspecified) | 5.05 | 3.74 | – | 22.6 | 17.4 | 4.77 | > 57.7 | 15.6 | 20.3 | 34.1 | – | – | – | – | – | – | – | – | –
13 | O=C(CCCCCCCCC(=O)N1C(=O)CC(=O)N(c2ccc(Cl)cc2)C1=S)N1C(=O)CC(=O)N(c2ccc(Cl)cc2)C1=S | > 100 | > 100 | 87.1 | > 100 | – | > 100 | > 100 | > 100 | > 100 | > 100 | – | – | – | – | – | – | – | – | –
14 | CN(Cc1ccccc1)C(=S)S | 40.7 | > 100 | 49.2 | > 100 | > 100 | – | > 100 | > 100 | 77.8 | > 100 | – | – | – | – | – | – | – | – | –
15 | COc1cc(/C=C2\C(=O)N(c3ccc(Cl)cc3)C(c3ccccc3)S2(=O)=O)cc(OC)c1OC (stereo unspecified) | > 100 | > 100 | > 70.7 | > 100 | – | > 100 | > 100 | > 100 | > 100 | > 96.7 | – | – | – | – | – | – | – | – | –
16 | COc1cc(CNc2nc3c(NC(C)=O)cc(C(F)(F)F)cc3nc2-c2ccccc2)cc(OC)c1OC | – | > 100 | > 100 | – | > 100 | > 100 | > 100 | > 100 | > 100 | > 100 | – | – | – | – | – | – | – | – | –
17 | CCOC(=O)CCC(NC(=O)c1ccc(NCc2ccc3nc(OC)c(OC)nc3c2)c2ccccc12)C(=O)OCC (stereo unspecified) | > 100 | > 100 | – | > 100 | > 100 | 56.5 | > 100 | > 100 | > 100 | > 100 | – | – | – | – | – | – | – | – | –

Row | Compound | TGI (786-0 renal) [µM] | TGI (ACHN renal) [µM] | TGI (CCRF-CEM leukemia) [µM] | TGI (DU-145 prostate) [µM] | TGI (IGROV1 ovarian) [µM] | TGI (SF-539 CNS) [µM] | TGI (SK-MEL-28 melanoma) [µM] | TGI (SN12C renal) [µM] | TGI (UO-31 renal) [µM] | TGI (HOP-62 NSCLC) [µM] | GI50 (ACHN renal) [µM] | GI50 (CCRF-CEM leukemia) [µM] | GI50 (DU-145 prostate) [µM] | GI50 (HOP-62 NSCLC) [µM] | GI50 (IGROV1 ovarian) [µM] | GI50 (SF-539 CNS) [µM] | GI50 (SK-MEL-28 melanoma) [µM] | GI50 (SN12C renal) [µM] | GI50 (UO-31 renal) [µM]
18 | N#Cc1nc(-c2ccsc2)oc1N | > 100 | > 100 | > 100 | > 100 | > 100 | – | > 100 | > 100 | > 100 | > 100 | – | – | – | – | – | – | – | – | –
19 | Nc1ncnc2c1ncn2C1C(O)C=C(CO)C1O (stereo unspecified) | – | – | – | – | > 625 | > 625 | – | > 625 | > 625 | > 625 | – | – | – | – | – | – | – | – | –
20 | CC(C)(C)C(=O)C(N)C(=O)C(C)(C)C | > 100 | > 100 | > 100 | > 100 | – | > 100 | > 100 | > 100 | > 100 | > 100 | – | – | – | – | – | – | – | – | –
21 | CCOC(=O)CCC(C(=O)OCC)n1nnc2cc(Nc3c(C)[n+]([O-])c4cc(Cl)ccc4[n+]3[O-])ccc21 (stereo unspecified) | > 100 | > 100 | > 100 | > 100 | > 100 | > 100 | – | > 100 | > 100 | > 100 | – | – | – | – | – | – | – | – | –
22 | O=C(CN1CCCC1)Nc1ccc2c(c1)C1Oc3ccccc3CC1CO2 (stereo unspecified) | 57.1 | – | > 100 | > 100 | > 100 | 39.5 | – | > 100 | 84.4 | 45.5 | – | – | – | – | – | – | – | – | –
23 | Oc1ccccc1/C=N/c1nc(-c2ccccc2)cs1 | – | > 100 | 65 | > 100 | > 100 | 94.3 | > 100 | > 100 | > 100 | > 100 | 32.2 | 19.7 | 77.5 | > 100 | > 100 | 27.5 | > 100 | 30.9 | 44.7
24 | O=c1[nH]c(NCCCCCO)nc2nc[nH]c12 | > 100 | > 100 | > 100 | > 100 | > 100 | – | – | > 100 | > 100 | > 100 | – | – | – | – | – | – | – | – | –
25 | C/C(=C\C(=O)O)C(=O)N(C)c1ccccc1I | > 100 | > 100 | > 100 | > 100 | – | – | > 100 | > 100 | > 100 | > 100 | – | – | – | – | – | – | – | – | –
26 | CCCCCCCCCCCCCCCCOC[C@H](COC(c1ccccc1)(c1ccccc1)c1ccccc1)O[P+](=S)OC (stereo partly specified) | > 100 | > 100 | > 100 | > 100 | > 100 | > 100 | – | > 100 | > 100 | – | – | – | – | – | – | – | – | – | –
27 | Cc1cc(S(=O)(=O)NC2=NCc3c(F)cccc3N2)c(S)cc1Cl | > 100 | > 100 | > 100 | > 100 | > 100 | > 100 | > 100 | > 100 | > 100 | – | – | – | – | – | – | – | – | – | –
28 | Cc1cc(Br)c(O)c(-c2cscn2)c1 | 8.39 | 36.6 | 28.6 | – | 56.7 | 37.3 | – | 23.6 | 25.4 | 41.2 | – | – | – | – | – | – | – | – | –
29 | N#CC(c1cc(Cl)ncn1)c1nc2cc(C(F)(F)F)ccc2s1 (stereo unspecified) | 13.4 | 59.6 | – | > 100 | 20.3 | 20.9 | 37.4 | > 100 | 17.8 | 30.9 | – | – | – | – | – | – | – | – | –
30 | Cc1cc(C)n(C(C)(C(=O)Cc2ccccc2)n2nc(C)cc2C)n1 | > 100 | > 100 | – | > 100 | > 100 | > 100 | > 100 | > 100 | > 100 | > 100 | – | – | – | – | – | – | – | – | –
31 | CCN(CCCl)c1cc(CN(C)C)cc(NC(=O)c2ccc(C(=O)Nc3cccc(N(CCCl)NN)c3)cc2)c1 | – | 0.233 | 0.115 | 8.66 | 0.078 | 0.56 | 0.505 | 1.16 | 1.54 | 10.7 | – | – | – | – | – | – | – | – | –
32 | Cc1c(C)c2c(c(N)c1C#N)C(=O)N(NC(=S)Nc1ccccc1)C2=O | > 100 | > 100 | > 100 | > 100 | > 100 | > 100 | > 100 | > 100 | > 100 | – | – | – | – | – | – | – | – | – | –
33 | CC1(O)CC23CC(O)C4(O)C(CC(O)C4(C)C)C(C)(O)C2CCC1C3O (stereo unspecified) | > 100 | > 100 | > 100 | > 100 | > 100 | > 100 | > 100 | > 100 | > 100 | – | – | – | – | – | – | – | – | – | –
34 | Nc1c(-c2ccccc2)c2ccc([N+](=O)[O-])cc2c(=O)n1-c1cccc(C(=O)O)c1 | – | > 100 | > 100 | > 100 | > 100 | > 100 | > 100 | – | > 100 | > 100 | – | – | – | – | – | – | – | – | –
